Test results published in US9708628B2, “Cationic lipid having improved intracellular kinetics” (NOF CORPORATION, priority 2011, dated 2017).

Legend:
[1] = tested on: Rabbit Reticulocyte Lysate Systems; experiment: Influence on in vitro translation reaction (luciferase mRNA); type: biochemical; settings: MEND 0.0625-0.25 μg per 1 μL mRNA solution, 30° C., 90 min
Protocol: MENDs having a composition of B-2:SOPE:Chol=5:3:2 were prepared by the method described in [Experimental Example 1] (2). For the preparation, PEG2000-DMG was used as PEG lipid, and MEND solutions corresponding to 0.55 mM of the lipid concentration were prepared. For cationic MEND, lipids having a composition of DOTAP:DOPE:Chol:=3:4:3 were used, and the cationic MEND was prepared according to the method described in [Experimental Example 1] (3).
Luciferase-mRNA solution was diluted to 0.005 μg/μL. Various MEND solutions were added in 0.0625, 0.125, 0.25 μg relative to 1 μL of mRNA solution to adjust the total amount to 6.5 μL. A mixture of RRL (Rabbit Reticulocyte Lysate, 17.5 μL), AAM (Amino Acid Mixture)-Met (0.25 μL), AAM-Leu (0.25 μL), and RRI (Recombinant RNase Inhibitor, 0.5 μL) was added, and the mixture was stood at 30° C. for 90 min.
10 μL thereof was mixed with a Luciferase assay substrate (50 μL), and the luciferase activity in a given time was measured by a luminometer. […] Thereafter, the absorbance at 562 nm was measured, and the protein amount of the sample was calculated from the absorbance of a BSA solution having a known concentration. The luciferase activity (RLU) was adjusted by dividing with protein amount (mg), and the luciferase activity per cellular protein amount (RLU/mg protein) was calculated.

HT1080 cells = experiment: Evaluation of endosome amount (Lysotracker Green); type: cell-based; settings: 6 hr after transfection
Protocol: MENDs having a composition of B-2-4 (Example 4):DOPE:Chol=3:3:4, B-2 (Example 1):SOPE:Chol=5:3:2 were prepared by the method described in [Experimental Example 1] (2). For the preparation, PEG2000-DMG was used as PEG lipid, and MEND solutions corresponding to 0.55 mM of the lipid concentration were prepared.
HT1080 cells were plated on a glass bottom dish at 5×10^4 cells/2 mL/dish 24 hr before. MEND was diluted with DMEM (FBS 10%+) to achieve pDNA 1.6 μg/2 mL and transfected into the cells. The cells without transfection of MEND were used as a control. After 5.5 hr, Lysotracker Green (Life technologies) was added at 2 μL/dish and Hoechst 33342 (Dojindo) was further added at 2 μL/dish 30 min later. 6 hr after the transfection, the cells were washed twice with heparin (20 units/mL, 2 mL), Krebs buffer (1 mL) was added, and the cells were observed by a confocal laser scan microscope.
Endosome/lysosome and nucleus were shown in pseudo colors of green and blue, respectively. The relative endosome amount was calculated according to the following formula.

[2] = Particle size and surface potential of siRNA MENDs prepared by t-BuOH injecting method; type: physicochemical; settings: siRNA MEND, cationic lipid/cholesterol=70/30, DMG-PEG2000 3%
Protocol: A lipid solution in t-BuOH with a composition of cationic lipid/cholesterol=70/30, DMG-PEG2000 3% and a total lipid amount of 3000 nmol/400 μL (7.5 mM) was prepared in a 1.7 mL tube. In a separate 1.7 mL tube, an siRNA solution was prepared by mixing an siRNA aqueous solution containing siRNA (160 μg) and 20 mM malate buffer (pH 4.00, 30 mM NaCl) to total 50 μL. With vigorous stirring of the lipid solution, the siRNA solution was gradually added dropwise, and the mixed solution was taken in a 1 mL syringe. Then, 20 mM malate buffer (pH 4.00, 30 mM NaCl, 2 mL) was added into a 5 mL tube, and the mixed solution was gradually injected with vigorous stirring. Thereafter, the mixture was further diluted with PBS (7 mL) and centrifuged at 1000 g, 30° C. for 10 min in Amicon Ultra-15-100K to a volume of less than 1.5 mL. PBS (15 mL) was added, and the solution was centrifuged again to about 500-1000 μL. Finally, the MEND solution was adjusted by diluting with PBS to the object lipid concentration.
The particle size and surface potential of various MENDs were measured according to the method described in [Experimental Example 2] and the results are shown in Table 6.

liver, lung and spleen = experiment: Gene expression activity in liver, lung and spleen after tail vein administration of MEND; type: in vivo, ICR mice; settings: 40 μg DNA
Protocol: A solution of pDNA encoding luciferase gene and protamine (maker) solution were diluted with 10 mM HEPES buffer to 0.3 mg/mL and 0.24 mg/mL, respectively. […] A solution (750 μL) of the electrostatic complex composed of gene and protamine was mixed with the lipid solution (750 μL), and the mixture was quickly stirred, diluted with 10 mM HEPES solution (pH 5.3) to 15 mL, and subjected to ultrafiltration using Amicon® Ultra-15 100K device at 3,000 rpm, 15 min, 25° C. The solution after ultrafiltration was diluted with 100 mM HEPES buffer (pH 7.4), and subjected to the ultrafiltration again. The solution was diluted with 10 mM HEPES buffer to 750 μL. […] The mice were euthanized by a cervical spine […] method 6, 24, 48, 72 hr later, and the liver, lung and spleen were isolated and frozen with liquid nitrogen. They were thawed in a Lysis buffer to prepare homogenates. They were centrifuged at 13,000 rpm, 10 min, 4° C., and the supernatant was collected and used as a measurement sample. The sample solution (20 μL) was mixed with a luciferase substrate (50 μL), and the luciferase activity was measured using Luminescenser-PSN (AB2200 ATTO). In addition, the concentration of the protein in the sample was quantified using a BCA protein assay kit, and the gene expression activity was measured as RLU/mg protein.

TNF-α = experiment: Cytokine production by MEND administration, TNF-α (ELISA); type: in vivo, ICR mice; settings: pCpGfree-Luc(0), 40 μg DNA
Protocol: (§1) MENDs used in [Experimental Example 12] were each administered to 5-week-old male ICR mice from the tail vein in an amount corresponding to 40 μg DNA. 1, 3, 6, 24 hr later, the blood was collected from the heart, and TNF-α, IFN-γ, IL-12p70 were measured using Quantikine ELISA kit (R&D Systems).

IFN-γ = experiment: Cytokine production by MEND administration, IFN-γ (ELISA); type: in vivo, ICR mice; settings: pCpGfree-Luc(0), 40 μg DNA
Protocol: as §1

IL-12p70 = experiment: Cytokine production by MEND administration, IL-12p70 (ELISA); type: in vivo, ICR mice; settings: pCpGfree-Luc(0), 40 μg DNA
Protocol: as §1

In the case of `CCCCCCCC/C=C\CCCCCCCC(=O)OCC(C[N+](C)(C)C)OC(=O)CCCCCCC/C=C\CCCCCCCC` (centres unmarked) [DOTAP, reference compound], the “inhibitory effect on in vitro translation reaction” value [1] is reported as “significant inhibitory effect”.

In the case of `CC1=C(/C=C/C(C)=C/C=C/C(C)=C/C(=O)OCCCN(C)CCSSCCN(C)CCCOC(=O)/C=C(C)/C=C/C=C(C)/C=C/C2=C(C)CCCC2(C)C)C(C)(C)CCC1` [Example B-2-4], the relative endosome amount (HT1080 cells) is reported as “significant decrease in endosome than the untreated group and the B-2 treatment group”.

In the case of `Cc1c(C)c2c(c(C)c1OC(=O)CCC(=O)OCCCN(C)CCSSCCN(C)CCCOC(=O)CCC(=O)Oc1c(C)c(C)c3c(c1C)CCC(C)(CCCC(C)CCCC(C)CCCC(C)C)O3)CCC(C)(CCCC(C)CCCC(C)CCCC(C)C)O2` (centres unmarked) [Example B-2-5], the PDI [2] is reported as 0.076, the “size (nm)” value [2] is reported as 110 nm and the “zeta (mV)” value [2] is reported as −9.5 mV.

In the case of `CCCCCCCCCCCCCC(=O)OCCCN(C)CCSSCCN(C)CCCOC(=O)CCCCCCCCCCCCC` [Example B-2], the “gene expression activity in the lung and spleen (organ selectivity)” value (liver, lung and spleen) is reported as “background-level”, the “time of peak/maximum gene expression activity” value (liver, lung and spleen; liver) is reported as 48 h and the “inhibitory effect on in vitro translation reaction” value [1] is reported as “not observed”. For the same compound, the TNF-α blood concentration (TNF-α) was “maintained the normal value at any time point”, the IFN-γ blood concentration (IFN-γ) was “maintained the normal value at any time point” and the IL-12p70 blood concentration (IL-12p70) was “maintained the normal value at any time point”.
